Test systems include Malme-3M; A549; NCI-H23; HL-60; UO-31; 786-0; OVCAR-3; OVCAR-4; SK-MEL-2; CCRF-CEM; NCI-H226; SN12C; K562; SK-MEL-5; RXF 393; A498.
Common to all, as to experiment: NCI-60 cell line screen, 48 h

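Interpolation was linear, between the two tested concentrations surrounding the appropriate level; five concentrations were tested over 48 hours in 96-well plates. GI50 = concentration required for 50% inhibition of growth.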 Calls of active or inactive are those of the source. No stated cut-off is given here; in the data, active = GI50 up to about 1.1 µM and inactive = higher.

On to `O=C1C=CC(=O)c2c1ccc1c3ccccc3n(-c3ccccn3)c21`, for which the GI50 in the assay with Malme-3M is 17.8 µM (inactive); with A549, > 100 µM (inactive); with NCI-H23, 36.6 µM (inactive); with HL-60, 3.5 µM (inactive); in the assay on UO-31, 19.1 µM (inactive); in the assay on 786-0 it was 15.2 µM (inactive). For the same molecule, the GI50 was 24.7 µM (inactive) in the assay on OVCAR-3; 15.5 µM (inactive) in the assay on OVCAR-4; 45.4 µM (inactive) in the assay with SK-MEL-2; 2.5 µM (inactive) with CCRF-CEM; 13.2 µM (inactive) in the assay with NCI-H226; 55.1 µM (inactive) with SN12C. For the same molecule, the GI50 in the assay with K562 is 4.98 µM (inactive).
As to `O=C(N/C(=C/c1cccc([N+](=O)[O-])c1)c1nc2cc(Cl)ccc2[nH]1)c1ccccc1`, the GI50 in the assay with Malme-3M was 12.8 µM (inactive); with SK-MEL-5, 2.82 µM (inactive); with A549, 14.2 µM (inactive); in the assay on RXF 393, 12.4 µM (inactive); in the assay on NCI-H23 it was 11.4 µM (inactive); in the assay on HL-60 it was 1.99 µM (inactive). For the same molecule, the GI50 was 13 µM (inactive) in the assay on A498; 2.18 µM (inactive) in the assay with UO-31; 15.7 µM (inactive) with 786-0; 19.6 µM (inactive) with OVCAR-3; 17.4 µM (inactive) in the assay with OVCAR-4; 16.1 µM (inactive) with SK-MEL-2. The GI50 with CCRF-CEM is 1.07 µM (active); with NCI-H226, 24.4 µM (inactive); with SN12C, 14.3 µM (inactive); in the assay with K562 it was 6.21 µM (inactive).
As for `COc1ccc2c(CCNC(=O)/C=C/c3ccccc3)c(C(C)=O)[nH]c2c1[N+](=O)[O-]`, the GI50 is 8.05 µM (inactive) in the assay on A549; 3.78 µM (inactive) with NCI-H23; 4.31 µM (inactive) in the assay with HL-60; 17.3 µM (inactive) in the assay with A498; 31.3 µM (inactive) in the assay on UO-31; 20.3 µM (inactive) in the assay with 786-0. The GI50 in the assay on OVCAR-3 was 10.1 µM (inactive); in the assay with OVCAR-4, 21.8 µM (inactive); in the assay on SK-MEL-2, 17.4 µM (inactive); with CCRF-CEM, 5.35 µM (inactive); with NCI-H226, 20.9 µM (inactive); in the assay with SN12C, 42.4 µM (inactive). Besides, the GI50 with K562 is 4.49 µM (inactive).
As for `C=CC1=CSNN1`, the GI50 in the assay on Malme-3M, with SK-MEL-5, in the assay with A549, in the assay on RXF 393, in the assay with NCI-H23 and in the assay with HL-60 was > 100 µM (inactive) throughout. For the same molecule, the GI50 in the assay with A498, in the assay on UO-31, with 786-0, in the assay with OVCAR-3, in the assay on OVCAR-4 and in the assay on SK-MEL-2 was > 100 µM (inactive) each time. The GI50 with CCRF-CEM, with SN12C and in the assay with K562 was > 100 µM (inactive) each time.
For `COC(=O)CCC(=O)CC(=O)C(=O)Nc1ccc(F)cc1`, the GI50 with Malme-3M was > 100 µM (inactive); in the assay on SK-MEL-5 it was > 100 µM (inactive); in the assay with A549, > 100 µM (inactive); in the assay on RXF 393, 54 µM (inactive); in the assay with NCI-H23 it was > 100 µM (inactive); with A498 it was > 100 µM (inactive). The GI50 in the assay with UO-31, in the assay with 786-0, in the assay with OVCAR-3, with OVCAR-4, in the assay on SK-MEL-2 and with CCRF-CEM was > 100 µM (inactive) in each case. Further, the GI50 with NCI-H226, with SN12C and with K562 was > 100 µM (inactive) each time.
On to `O=S1(=O)NN=C(NCc2ccc(Cl)cc2)c2ccccc21`, for which the GI50 in the assay with Malme-3M was > 100 µM (inactive); in the assay on SK-MEL-5, > 100 µM (inactive); in the assay on A549 it was > 100 µM (inactive); in the assay on RXF 393 it was 30.5 µM (inactive); in the assay with HL-60, > 100 µM (inactive); with A498, > 100 µM (inactive). Also, the GI50 in the assay with UO-31 is > 100 µM (inactive); with 786-0 it was 54.5 µM (inactive); in the assay with OVCAR-3, > 100 µM (inactive); in the assay on OVCAR-4, > 100 µM (inactive); in the assay on SK-MEL-2, > 100 µM (inactive); in the assay on CCRF-CEM it was 45.2 µM (inactive). In addition, the GI50 was > 100 µM (inactive) in the assay on NCI-H226, > 100 µM (inactive) in the assay with SN12C and 38 µM (inactive) in the assay on K562.
Consider `CCOc1ccc2c(c1)[n+]([O-])c(-c1ccc(Br)cc1)c(N)[n+]2[O-]`, for which the GI50 in the assay with Malme-3M was 55.6 µM (inactive); in the assay with SK-MEL-5 it was 20.8 µM (inactive); in the assay on A549, 59.6 µM (inactive); in the assay on NCI-H23 it was 22.8 µM (inactive); in the assay on HL-60, 31.3 µM (inactive); in the assay on A498, 45.3 µM (inactive). Also, the GI50 with UO-31 was 67.3 µM (inactive); in the assay with 786-0, > 100 µM (inactive); in the assay with OVCAR-3, 48.1 µM (inactive); in the assay with OVCAR-4, > 100 µM (inactive); in the assay with SK-MEL-2, > 100 µM (inactive); with CCRF-CEM, 53.1 µM (inactive). Further, the GI50 in the assay with NCI-H226 was > 100 µM (inactive); with SN12C it was 71 µM (inactive); in the assay on K562, 75.5 µM (inactive).
With `CC1=C(c2ccccc2)C(c2ccccc2)=C(c2ccccc2)C2(c3ccccc3)C(=O)C(C)CN12` (configuration not stated), the GI50 is > 100 µM (inactive) with Malme-3M; 59 µM (inactive) in the assay with SK-MEL-5; 57.1 µM (inactive) in the assay on A549; 26.1 µM (inactive) with RXF 393; > 100 µM (inactive) in the assay with A498; > 100 µM (inactive) with UO-31. The GI50 was 30.6 µM (inactive) in the assay with 786-0; 34.7 µM (inactive) with OVCAR-3; 20.8 µM (inactive) in the assay with OVCAR-4; 95.7 µM (inactive) in the assay with SK-MEL-2; 21 µM (inactive) with NCI-H226; 41.7 µM (inactive) in the assay with SN12C. The GI50 in the assay on K562 was > 10 µM (inactive).
Turning to `Cc1c(C)n(COCCO)c2ncnc(N)c12`, the GI50 in the assay on SK-MEL-5, in the assay with A549, in the assay with RXF 393, in the assay on NCI-H23, with HL-60 and in the assay with A498 was > 100 µM (inactive) throughout. Also, the GI50 in the assay with UO-31, in the assay with 786-0, in the assay with OVCAR-3, with OVCAR-4, in the assay with SK-MEL-2 and in the assay with CCRF-CEM was > 100 µM (inactive) in each case. Besides, the GI50 in the assay with NCI-H226, in the assay on SN12C and with K562 was > 100 µM (inactive) each time.
Turning to `O=C1OC(=O)C2C1C1C(c3ccccc3)=C(c3ccccc3)C2(O)C2C(=O)OC(=O)C12` (configuration not stated), the GI50 is > 100 µM (inactive) with Malme-3M; > 100 µM (inactive) in the assay with A549; 65.3 µM (inactive) in the assay with NCI-H23; > 10 µM (inactive) in the assay with HL-60; > 100 µM (inactive) with A498; > 100 µM (inactive) in the assay on UO-31. For the same molecule, the GI50 was 92.3 µM (inactive) with 786-0; > 100 µM (inactive) in the assay with OVCAR-3; > 100 µM (inactive) in the assay on OVCAR-4; > 100 µM (inactive) with SK-MEL-2; 37.5 µM (inactive) in the assay on CCRF-CEM; > 100 µM (inactive) in the assay with NCI-H226. Besides, the results for the GI50 with SN12C and with K562 were 96.2 µM (inactive) and 45.1 µM (inactive), respectively.
Take `O=C1c2ccccc2C(=O)c2c(O)c(O)cc(O)c21` [PURPURIN]: the GI50 in the assay with Malme-3M is 32.7 µM (inactive); in the assay on SK-MEL-5, 37.9 µM (inactive); in the assay with A549, 44.7 µM (inactive); in the assay on RXF 393, 21.7 µM (inactive); in the assay with NCI-H23, 29.9 µM (inactive); in the assay on HL-60 it was 24 µM (inactive). Further, the GI50 with A498 is 31 µM (inactive); in the assay on UO-31, 19 µM (inactive); in the assay with 786-0 it was 25.8 µM (inactive); in the assay on OVCAR-3, 22.4 µM (inactive); with OVCAR-4 it was 41 µM (inactive); with SK-MEL-2, 21.2 µM (inactive). The GI50 in the assay on CCRF-CEM was 35 µM (inactive); with SN12C it was 34.7 µM (inactive); with K562 it was 36.5 µM (inactive).
Turning to `N#C/C(=C/c1ccsc1)C(=O)c1ccccc1`, the GI50 with Malme-3M, with SK-MEL-5, with A549, in the assay on RXF 393, in the assay on NCI-H23 and with HL-60 was > 100 µM (inactive) throughout. Also, the GI50 in the assay with UO-31, in the assay with 786-0, in the assay with OVCAR-3, in the assay on OVCAR-4, with SK-MEL-2 and with CCRF-CEM was > 100 µM (inactive) throughout. Besides, the GI50 in the assay on NCI-H226, in the assay with SN12C and in the assay on K562 was > 100 µM (inactive) in each case.
Consider `Nc1ccn(CCCC(c2ccccc2)P(=O)(O)O)c(=O)n1` (configuration not stated), for which the GI50 in the assay on Malme-3M, with SK-MEL-5, with A549, in the assay on NCI-H23, in the assay on HL-60 and in the assay on A498 was > 100 µM (inactive) each time. The GI50 with UO-31, with 786-0, in the assay with OVCAR-3, with SK-MEL-2, in the assay on CCRF-CEM and in the assay with SN12C was > 100 µM (inactive) each time. Further, the GI50 with K562 was > 100 µM (inactive).
Regarding `O=C(O)c1cc2c3ccccc3nc-2c[nH]1`, the GI50 with Malme-3M, in the assay with SK-MEL-5, in the assay on A549, with RXF 393, with NCI-H23 and with HL-60 was > 100 µM (inactive) each time. For the same molecule, the GI50 was 10 µM (inactive) in the assay on A498; > 100 µM (inactive) in the assay on UO-31; > 100 µM (inactive) in the assay on 786-0; > 100 µM (inactive) with OVCAR-3; > 100 µM (inactive) with OVCAR-4; > 100 µM (inactive) with CCRF-CEM. Also, the GI50 in the assay with NCI-H226, with SN12C and in the assay with K562 was > 100 µM (inactive) each time.

The values are drawn from ChEMBL document CHEMBL1201862, “PubChem BioAssay data set” (2004).
